Experimental data taken from article PMC5532207, “Honokiol suppresses formyl peptide-induced human neutrophil activation by blocking formyl peptide receptor 1” (Scientific Reports, 2017).

Molecular target: T1, Formyl peptide receptor 1 (FPR1) (Homo sapiens, UniProt P21462)
T1 construct: human neutrophils; also hFPR1 (NM_002029)-transfected HEK-293 and differentiated THP-1 cells
T1 sequence (P21462 1-350): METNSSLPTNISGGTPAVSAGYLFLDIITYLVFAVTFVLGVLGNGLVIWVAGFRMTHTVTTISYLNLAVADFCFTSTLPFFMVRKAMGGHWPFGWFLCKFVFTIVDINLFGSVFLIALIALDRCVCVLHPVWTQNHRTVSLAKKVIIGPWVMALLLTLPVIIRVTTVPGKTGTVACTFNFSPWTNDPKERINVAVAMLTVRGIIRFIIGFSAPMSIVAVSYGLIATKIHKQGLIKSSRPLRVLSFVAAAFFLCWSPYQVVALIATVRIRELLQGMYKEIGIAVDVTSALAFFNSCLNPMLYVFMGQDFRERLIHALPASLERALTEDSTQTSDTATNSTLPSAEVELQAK
Assay: displacement of fluorescent FPR1 ligand fNLFNYK on intact cells, flow cytometry
Assay type: cell-based

An IC50 of 7.44 ± 0.97 µM was found for C=CCc1ccc(O)c(-c2ccc(O)c(CC=C)c2)c1 [H, Honokiol] in this work.
